Structures can show the parent of a compound that is named as a salt. Active and inactive are the calls of the source.
Key:
[1] = target: T1, Phosphatidylinositol 5-phosphate 4-kinase type-2 gamma (Homo sapiens, UniProt Q8TBX8)
T1 sequence (Q8TBX8 whole entry): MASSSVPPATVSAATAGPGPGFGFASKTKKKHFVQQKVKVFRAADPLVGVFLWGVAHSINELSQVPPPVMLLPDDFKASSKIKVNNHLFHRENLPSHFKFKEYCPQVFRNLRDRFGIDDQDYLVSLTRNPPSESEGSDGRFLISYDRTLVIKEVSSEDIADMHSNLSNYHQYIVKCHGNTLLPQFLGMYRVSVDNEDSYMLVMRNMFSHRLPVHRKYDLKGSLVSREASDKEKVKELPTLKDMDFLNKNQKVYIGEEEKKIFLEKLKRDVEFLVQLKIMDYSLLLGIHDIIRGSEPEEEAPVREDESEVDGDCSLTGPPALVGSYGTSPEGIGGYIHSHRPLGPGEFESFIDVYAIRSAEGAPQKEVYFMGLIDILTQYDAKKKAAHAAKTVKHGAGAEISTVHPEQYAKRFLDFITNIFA

[2] = target: T2, Acyl-CoA dehydrogenase family member 10 (Homo sapiens, UniProt Q6JQN1)
T2 sequence (Q6JQN1 whole entry): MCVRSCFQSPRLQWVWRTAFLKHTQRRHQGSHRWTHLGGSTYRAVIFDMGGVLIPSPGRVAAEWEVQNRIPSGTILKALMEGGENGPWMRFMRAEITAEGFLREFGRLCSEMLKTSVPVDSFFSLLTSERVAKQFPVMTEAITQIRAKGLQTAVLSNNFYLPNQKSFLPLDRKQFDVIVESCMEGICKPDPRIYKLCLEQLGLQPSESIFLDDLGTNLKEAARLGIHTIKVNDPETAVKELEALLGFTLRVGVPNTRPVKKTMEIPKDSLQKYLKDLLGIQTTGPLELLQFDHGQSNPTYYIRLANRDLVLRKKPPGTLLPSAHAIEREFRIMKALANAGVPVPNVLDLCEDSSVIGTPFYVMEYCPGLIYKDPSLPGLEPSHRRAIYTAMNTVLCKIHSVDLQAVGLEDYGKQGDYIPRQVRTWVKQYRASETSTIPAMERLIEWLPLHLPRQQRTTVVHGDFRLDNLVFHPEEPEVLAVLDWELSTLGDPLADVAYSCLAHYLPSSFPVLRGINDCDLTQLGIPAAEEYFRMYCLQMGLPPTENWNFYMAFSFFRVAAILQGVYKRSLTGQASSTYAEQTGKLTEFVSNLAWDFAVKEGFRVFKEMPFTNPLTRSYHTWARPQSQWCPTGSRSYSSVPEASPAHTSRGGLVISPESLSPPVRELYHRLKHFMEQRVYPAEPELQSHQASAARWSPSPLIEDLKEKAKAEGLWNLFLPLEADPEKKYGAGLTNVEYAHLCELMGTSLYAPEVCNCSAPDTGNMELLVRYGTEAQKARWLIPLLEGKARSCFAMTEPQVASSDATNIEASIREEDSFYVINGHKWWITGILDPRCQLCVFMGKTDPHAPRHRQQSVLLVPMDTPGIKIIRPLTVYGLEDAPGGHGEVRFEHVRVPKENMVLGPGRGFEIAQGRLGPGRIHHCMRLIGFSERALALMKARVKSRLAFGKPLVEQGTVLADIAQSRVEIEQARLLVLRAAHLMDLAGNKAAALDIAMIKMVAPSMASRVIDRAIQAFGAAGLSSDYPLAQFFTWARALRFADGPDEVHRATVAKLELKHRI

[3] = target: Atypical kinase COQ8A, mitochondrial (Homo sapiens, UniProt Q8NI60)
[4] = target: Dual specificity testis-specific protein kinase 2 (Homo sapiens, UniProt Q96S53)
[5] = target: T3, Isoleucine--tRNA ligase, mitochondrial (Homo sapiens, UniProt Q9NSE4)
T3 sequence (Q9NSE4 whole entry): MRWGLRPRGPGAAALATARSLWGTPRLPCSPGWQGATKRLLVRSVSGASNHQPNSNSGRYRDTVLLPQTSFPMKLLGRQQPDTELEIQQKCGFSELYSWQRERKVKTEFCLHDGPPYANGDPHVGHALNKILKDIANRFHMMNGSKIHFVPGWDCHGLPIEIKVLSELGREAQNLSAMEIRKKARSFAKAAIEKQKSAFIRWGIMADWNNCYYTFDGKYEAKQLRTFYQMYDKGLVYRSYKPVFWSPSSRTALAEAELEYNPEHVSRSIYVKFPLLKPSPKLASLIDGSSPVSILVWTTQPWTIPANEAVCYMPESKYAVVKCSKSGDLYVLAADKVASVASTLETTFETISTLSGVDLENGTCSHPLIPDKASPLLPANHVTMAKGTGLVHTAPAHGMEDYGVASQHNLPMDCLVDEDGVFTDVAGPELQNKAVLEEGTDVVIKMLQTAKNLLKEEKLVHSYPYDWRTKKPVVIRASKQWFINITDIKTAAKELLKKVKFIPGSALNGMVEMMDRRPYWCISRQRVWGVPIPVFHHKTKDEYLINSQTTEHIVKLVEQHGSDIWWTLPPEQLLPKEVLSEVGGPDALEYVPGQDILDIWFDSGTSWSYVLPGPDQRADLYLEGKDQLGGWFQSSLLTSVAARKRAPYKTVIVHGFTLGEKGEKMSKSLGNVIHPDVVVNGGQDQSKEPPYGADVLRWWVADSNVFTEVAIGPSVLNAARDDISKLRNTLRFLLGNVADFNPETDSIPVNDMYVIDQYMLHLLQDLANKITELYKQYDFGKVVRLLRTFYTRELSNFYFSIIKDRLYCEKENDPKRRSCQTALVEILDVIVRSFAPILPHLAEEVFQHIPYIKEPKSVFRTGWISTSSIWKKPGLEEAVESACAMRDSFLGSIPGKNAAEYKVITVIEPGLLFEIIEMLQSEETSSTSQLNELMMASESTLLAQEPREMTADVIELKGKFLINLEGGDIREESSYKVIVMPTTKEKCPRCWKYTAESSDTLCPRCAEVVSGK
Note: in the data inactive means no Kd found up to 30 µM.

Atypical kinase COQ8A, mitochondrial, sequence (Q8NI60 whole entry): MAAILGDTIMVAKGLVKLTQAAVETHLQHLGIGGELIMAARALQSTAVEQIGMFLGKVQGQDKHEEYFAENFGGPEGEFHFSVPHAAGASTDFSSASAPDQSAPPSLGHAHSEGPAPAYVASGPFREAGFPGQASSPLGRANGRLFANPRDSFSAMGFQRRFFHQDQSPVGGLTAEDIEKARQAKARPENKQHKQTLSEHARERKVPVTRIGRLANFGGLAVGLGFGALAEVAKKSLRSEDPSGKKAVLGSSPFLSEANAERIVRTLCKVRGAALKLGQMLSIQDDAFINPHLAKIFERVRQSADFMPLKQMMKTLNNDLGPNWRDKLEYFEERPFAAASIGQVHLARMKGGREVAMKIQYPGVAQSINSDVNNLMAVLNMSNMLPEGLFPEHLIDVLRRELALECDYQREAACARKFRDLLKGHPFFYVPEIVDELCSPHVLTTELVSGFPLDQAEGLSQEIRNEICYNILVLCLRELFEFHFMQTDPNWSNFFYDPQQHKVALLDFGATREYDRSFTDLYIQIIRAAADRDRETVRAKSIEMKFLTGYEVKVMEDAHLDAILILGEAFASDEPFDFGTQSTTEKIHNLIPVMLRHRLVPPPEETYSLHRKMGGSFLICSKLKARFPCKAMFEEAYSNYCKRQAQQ
Dual specificity testis-specific protein kinase 2, sequence (Q96S53 whole entry): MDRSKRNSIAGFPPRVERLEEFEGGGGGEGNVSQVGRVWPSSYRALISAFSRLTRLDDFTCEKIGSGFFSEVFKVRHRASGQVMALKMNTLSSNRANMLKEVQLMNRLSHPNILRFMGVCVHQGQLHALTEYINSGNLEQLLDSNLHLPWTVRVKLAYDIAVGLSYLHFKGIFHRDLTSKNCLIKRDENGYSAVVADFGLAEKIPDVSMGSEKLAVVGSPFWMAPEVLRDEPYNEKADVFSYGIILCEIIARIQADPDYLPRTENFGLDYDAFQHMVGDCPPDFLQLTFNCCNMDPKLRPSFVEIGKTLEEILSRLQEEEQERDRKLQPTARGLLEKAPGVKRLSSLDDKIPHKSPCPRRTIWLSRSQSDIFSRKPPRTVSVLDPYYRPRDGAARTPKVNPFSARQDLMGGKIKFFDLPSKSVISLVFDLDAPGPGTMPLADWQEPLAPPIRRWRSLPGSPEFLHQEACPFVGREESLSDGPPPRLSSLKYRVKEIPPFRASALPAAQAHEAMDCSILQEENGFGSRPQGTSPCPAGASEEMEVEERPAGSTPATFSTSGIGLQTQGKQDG

Row | Kd [1] | Kd [2] | Kd [3] | Kd [4] | Kd [5] | Structure (SMILES)
1 | > 30 µM (inactive) | > 30 µM (inactive) | 0.835 µM (active) |  |  | Nc1ncnc2c1c(-c1cccc(OCc3ccccc3)c1)cn2[C@H]1C[C@@H](CN2CCC2)C1 [AEW-541]
2 | > 30 µM (inactive) | > 30 µM (inactive) | > 30 µM (inactive) |  | > 30 µM (inactive) | CCn1c(C(=O)N(C2CC2)C2CC2)cc2c3c(ncn3C)c(Nc3cc(C)n(C)n3)nc21 [BMS-911543]
3 | > 30 µM (inactive) | > 30 µM (inactive) | > 30 µM (inactive) |  | > 30 µM (inactive) | COc1cc2ncnc(Oc3cccc(NC(=O)Nc4cc(C(C)(C)C(F)(F)F)on4)c3)c2cc1OC [CEP-32496]
4 |  | > 30 µM (inactive) | 3.05 µM |  |  | NC(=O)c1c(OCc2c(F)cc(Br)cc2F)nsc1NC(=O)NCCCCN1CCCC1 [OSI-632]
5 | > 30 µM (inactive) | > 30 µM (inactive) | > 30 µM (inactive) |  |  | Cn1cc(-c2cnn3c(N)c(Br)c([C@@H]4CCCNC4)nc23)cn1 [SCH-900776]
6 | > 30 µM (inactive) |  | > 30 µM (inactive) | > 30 µM (inactive) |  | CCS(=O)(=O)c1cccc(-c2cc(C(=O)NC3CCN(C)CC3)c(C)c3[nH]c4ncc(C)cc4c23)c1 [TAK-901]

More lines, now with the values behind:

Row | Structure (SMILES) | Kd [1] | Kd [2] | Kd [3] | Kd [4] | Kd [5]
7 | C[C@@H](Oc1cc(C(=O)Nc2ccc(C(=O)N3CCN(C)CC3)cc2)nnc1N)c1c(Cl)ccc(F)c1Cl | > 30 µM (inactive) | > 30 µM (inactive) | > 30 µM (inactive) |  | 
8 | C[C@H]1CNCCCN1S(=O)(=O)c1cccc2cncc(F)c12 | > 30 µM (inactive) | > 30 µM (inactive) | > 30 µM (inactive) | > 30 µM (inactive) | 
9 | CCNC(=O)C#Cc1ccc2c(c1)NC(=O)/C2=C(\Nc1ccc(CN(C)C)cc1)c1ccccc1 | > 30 µM (inactive) | > 30 µM (inactive) | > 30 µM (inactive) |  | 
10 | C=CC(=O)N1CCC[C@H](n2c(=O)n(-c3ccc(Oc4ccccc4)cc3)c3c(N)ncnc32)C1 | > 30 µM (inactive) | > 30 µM (inactive) | > 30 µM (inactive) | > 30 µM (inactive) | 
11 | COCc1c(-c2ccc(NC(=O)Nc3cc(C(F)(F)F)ccc3F)c(F)c2)c2c(N)ncnn2c1CN1CCOCC1 | > 30 µM (inactive) | > 30 µM (inactive) | > 30 µM (inactive) |  | > 30 µM (inactive)
12 | COc1cc(Nc2ncc3c(n2)-c2ccc(Cl)cc2C(c2c(F)cccc2OC)=NC3)ccc1C(=O)O [ALISERTIB] |  |  | > 30 µM (inactive) | > 30 µM (inactive) | 
13 | Cc1nc(NC(=O)N2CCC[C@H]2C(N)=O)sc1-c1ccnc(C(C)(C)C(F)(F)F)c1 [ALPELISIB] |  | > 30 µM (inactive) | > 30 µM (inactive) |  | > 30 µM (inactive)
14 | C=CC(=O)Nc1cc2c(Nc3ccc(F)c(Cl)c3)ncnc2cc1C#CC(C)(C)N1CCN(C)CC1 [AV-412 FREE BASE] | > 30 µM (inactive) | > 30 µM (inactive) | > 30 µM (inactive) | > 30 µM (inactive) | 
15 | COc1cc([C@@H]2c3cc4c(cc3[C@H](O)[C@H]3COC(=O)[C@@H]23)OCO4)cc(OC)c1OC [AXL-1717] | > 30 µM (inactive) |  | > 30 µM (inactive) |  | > 30 µM (inactive)
16 | NC(=O)Nc1cc(-c2cccc(F)c2)sc1C(=O)N[C@H]1CCCNC1 [AZD-7762] | > 30 µM (inactive) | > 30 µM (inactive) | > 30 µM (inactive) | > 30 µM (inactive) | 
17 | Cc1cc(Nc2ncc(Cl)c(Nc3ccccc3S(=O)(=O)C(C)C)n2)c(OC(C)C)cc1C1CCNCC1 [CERITINIB] | > 30 µM (inactive) | > 30 µM (inactive) | > 30 µM (inactive) |  | 
18 | COc1c(OCCCN2CCOCC2)ccc2c1N=C(NC(=O)c1cnc(N)nc1)N1CCN=C21 [COPANLISIB] | > 30 µM (inactive) | > 30 µM (inactive) | > 30 µM (inactive) |  | 
19 | CCS(=O)(=O)N1CCN(c2ccc(Nc3ncc(C(N)=O)c(NC4CC4)n3)cc2)CC1 [Cerdulatinib Hydrochloride] | > 30 µM (inactive) | > 30 µM (inactive) | > 30 µM (inactive) |  | 
20 | Cn1cc(C2=C(c3cn(C4CCN(Cc5ccccn5)CC4)c4ccccc34)C(=O)NC2=O)c2ccccc21 [ENZASTAURIN] |  | > 30 µM (inactive) |  | > 30 µM (inactive) | 
21 | CN(C[C@@H]1COCCO1)S(=O)(=O)Nc1ccc2ccc3ncc(-c4cnn(C)c4)cc3c(=O)c2c1 [MK-2461] | 1.03 µM (active) |  | > 30 µM (inactive) |  | > 30 µM (inactive)
22 | Cn1cc(-c2cnc3ccc4ccc(CS(=O)(=O)NCc5ccccn5)cc4c(=O)c3c2)cn1 [MK-8033] | > 30 µM (inactive) | > 30 µM (inactive) | > 30 µM (inactive) |  | > 30 µM (inactive)
23 | FC(F)(F)c1ccc(/C=C/c2nc(COc3ccc(CCCCn4ccnn4)cc3)co2)cc1 [MUBRITINIB] | > 30 µM (inactive) | > 30 µM (inactive) | > 30 µM (inactive) | > 30 µM (inactive) | 
24 | COc1ncc(-c2ccc3nccc(-c4ccnnc4)c3c2)cc1NS(=O)(=O)c1ccc(F)cc1F [OMIPALISIB] | 1.37 µM (active) |  | > 30 µM (inactive) |  | > 30 µM (inactive)
25 | CCOc1cc2ncc(C#N)c(Nc3ccc(F)c(Cl)c3)c2cc1NC(=O)/C=C/CN(C)C [PELITINIB] | > 30 µM (inactive) | > 30 µM (inactive) | > 30 µM (inactive) |  | > 30 µM (inactive)
26 | N#CC[C@H](C1CCCC1)n1cc(-c2ncnc3[nH]ccc23)cn1 [RUXOLITINIB] |  | > 30 µM (inactive) |  |  | > 30 µM (inactive)
27 | CN1CCN(CCOc2cc(OC3CCOCC3)c3c(Nc4c(Cl)ccc5c4OCO5)ncnc3c2)CC1 [SARACATINIB] | > 30 µM (inactive) | > 30 µM (inactive) | 0.275 µM (active) |  | 
28 | Cn1ncc(Cl)c1-c1cc(C(=O)N[C@H](CN)Cc2ccc(F)c(F)c2)oc1Cl [UPROSERTIB] | > 30 µM (inactive) |  | > 30 µM (inactive) |  | 
29 | CN1C/C=C/CCOc2cccc(c2)-c2ccnc(n2)Nc2cccc(c2)C1 [ZOTIRACICLIB] | > 30 µM (inactive) |  | > 30 µM (inactive) |  | > 30 µM (inactive)

Reference: ChEMBL document CHEMBL3991601, “The target landscape of clinical kinase drugs” (Science, 2017)
